Numbered stars: 1 amine (or outer) side, 2 acyl side, 3 side chain; on linkers, the order of the positions; unused ones are H or OH. Bridge positions count the residues as written; N and C are the ends. Square brackets hold non-standard residues; d marks the D form. Peptide text beside a SMILES is read from it. * marks the point of attachment. C20 diacid = O=C(O)CCCCCCCCCCCCCCCCCCC(=O)*; γGlu = O=C(O)[C@H](CCC(=O)[*:2])N[*:1]; Hyp = O=C(O)[C@@H]1C[C@@H](O)CN1; NMeI = CC[C@H](C)[C@H](NC)C(=O)O; Sar = CNCC(=O)O
Assays:
[1] = Solubility assessment (turbidity absorbance at 325 nm); format: physicochemical; settings: stock 2 mg/ml diluted 1:1, ambient temperature (typically 25°C), n=1; for Solubility, Acetate buffer pH 4: 100 mM acetate buffer pH 4.0; for Solubility, Acetate buffer pH 5: 100 mM acetate buffer pH 5.0; for Solubility, Histidine buffer pH 6: 100 mM histidine buffer pH 6.0; for Solubility, Histidine buffer pH 7: 100 mM histidine buffer pH 7.0; for Solubility, Phosphate buffer pH 6: 100 mM phosphate buffer pH 6.0; for Solubility, Phosphate buffer pH 7: 100 mM phosphate buffer pH 7.0; for Solubility, Phosphate buffer pH 7.5: 100 mM phosphate buffer pH7.5
Procedure, shortened: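 Peptide stock (2 mg/ml, water pH 2.5) diluted 1:1 into 100 mM acetate (pH 4.0, 5.0), histidine (pH 6.0, 7.0) or phosphate (pH 6.0–7.5) buffer; absorbance at 325 nm read at about 25°C, n=1. A325 ≤ 0.02 taken as solubility ≥ 1 mg/ml.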

[2] = target: T1, human amylin receptor 3 (hAMYR3) consisting of hCTR2 co-expressed with human Receptor Activity Modifying Protein 3 (hRAMP3) (Homo sapiens, UniProt O60896+P30988); test: hAMYR3 assay: induction of cAMP (AlphaScreen cAMP Assay kit) in COS7 cells expressing hAMYR3; format: cell-based; settings: cAMP induction in COS7 cells expressing hAMYR3; average of a minimum of 3 determinations; read-out: hAMY R3 EC50
T1 construct: expressed in transfected cells
T1 sequence (P30988 25-474): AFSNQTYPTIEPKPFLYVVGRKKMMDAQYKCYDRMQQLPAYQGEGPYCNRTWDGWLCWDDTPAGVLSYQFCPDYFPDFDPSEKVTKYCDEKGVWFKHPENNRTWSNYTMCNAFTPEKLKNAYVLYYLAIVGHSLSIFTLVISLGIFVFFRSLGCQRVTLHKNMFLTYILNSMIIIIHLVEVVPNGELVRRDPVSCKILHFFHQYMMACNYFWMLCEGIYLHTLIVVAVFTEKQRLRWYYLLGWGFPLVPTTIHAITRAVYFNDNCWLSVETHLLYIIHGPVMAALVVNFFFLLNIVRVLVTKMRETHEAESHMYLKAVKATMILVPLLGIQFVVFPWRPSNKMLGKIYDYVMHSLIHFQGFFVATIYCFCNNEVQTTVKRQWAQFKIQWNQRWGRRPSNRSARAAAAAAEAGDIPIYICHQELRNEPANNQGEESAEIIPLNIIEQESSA
T1 sequence (O60896 24-148 partner): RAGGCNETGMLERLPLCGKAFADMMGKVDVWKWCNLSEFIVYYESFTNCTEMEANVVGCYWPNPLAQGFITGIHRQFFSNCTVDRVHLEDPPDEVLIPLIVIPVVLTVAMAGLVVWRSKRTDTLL
Procedure, shortened: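 Stable COS7 clone co-expressing hCTR2 and hRAMP3, stimulated 15 min at 37° C with increasing peptide in Tyrode buffer pH 7.4 with 100 µM IBMX and 0.1% casein. cAMP measured by AlphaScreen after lysis; EC50 and % efficacy versus pramlintide from 4PL fit.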

[3] = target: T2, human calcitonin receptor (hCTR2) (Homo sapiens, UniProt P30988); test: hCTR2 assay: induction of cAMP (AlphaScreen cAMP Assay kit) in COS7 cells expressing hCTR2; format: cell-based; settings: cAMP induction in COS7 cells expressing hCTR2; average of a minimum of 3 determinations; read-out: hCTR2 EC50
T2 construct: expressed in transfected cells
T2 sequence (P30988 25-474): T1 sequence (P30988 25-474)
Procedure, shortened: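 Stable hCTR2 clone in RAMP-naive COS7 cells; peptides titrated in Tyrode buffer (pH 7.4) with 100 µM IBMX, 0.1% casein, 15 min at 37° C. cAMP read by AlphaScreen after lysis; EC50 and efficacy relative to pramlintide from 4PL fit.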

SMILES | Solubility, Acetate buffer pH 4 [1] | Solubility, Acetate buffer pH 5 [1] | Solubility, Histidine buffer pH 6 [1] | Solubility, Histidine buffer pH 7 [1] | Solubility, Phosphate buffer pH 6 [1] | Solubility, Phosphate buffer pH 7 [1] | Solubility, Phosphate buffer pH 7.5 [1] | EC50 [2] | EC50 [3]
CC[C@H](C)[C@@H](C(=O)N[C@@H](CC(C)C)C(=O)N[C@@H](CO)C(=O)N[C@@H](CO)C(=O)N[C@H](C(=O)N[C@@H](CC(=O)O)C(=O)N[C@H](C(=O)NCC(=O)N[C@@H](CO)C(=O)N[C@@H](CC(=O)O)C(=O)N[C@H](C(=O)N1CCC[C@H]1C(N)=O)[C@@H](C)O)C(C)C)[C@@H](C)O)N(C)C(=O)[C@H](C)NC(=O)CN(C)C(=O)[C@H](Cc1ccccc1)NC(=O)[C@H](CO)NC(=O)[C@H](CO)NC(=O)[C@H](CO)NC(=O)[C@H](CO)NC(=O)[C@H](CCCNC(=N)N)NC(=O)[C@H](Cc1c[nH]cn1)NC(=O)[C@H](CC(C)C)NC(=O)[C@H](Cc1ccccc1)NC(=O)[C@H](CCC(=O)O)NC(=O)[C@H](C)NC(=O)[C@H](CC(C)C)NC(=O)[C@H](CCCNC(=N)N)NC(=O)[C@H](CCC(=O)O)NC(=O)[C@@H](NC(=O)[C@H](C)NC(=O)[C@@H]1CSSC[C@H](NC(=O)[C@H](CCCNC(=N)N)NC(=O)CC[C@H](NC(=O)CCCCCCCCCCCCCCCCCCC(=O)O)C(=O)O)C(=O)N[C@@H](CC(N)=O)C(=O)N[C@@H]([C@@H](C)O)C(=O)N[C@@H](C)C(=O)N[C@@H]([C@@H](C)O)C(=O)N1)[C@@H](C)O [Compound 160, [19CD]-isoGlu-RC()NTATC()ATERLAEFLHRSSSSF-Gly(Me)-A-Ile(Me)-LSSTDVGSDTP-NH2] ({C20 diacid-γGlu}-RCNTATCATERLAEFLHRSSSSF[Sar]A[NMeI]LSSTDVGSDTP-NH2; disulfide 2-7) | SS (SS indicates solubility ≥ 1mg/ml) | SS (SS indicates solubility ≥ 1mg/ml) | SS (SS indicates solubility ≥ 1mg/ml) | SS (SS indicates solubility ≥ 1mg/ml) | SS (SS indicates solubility ≥ 1mg/ml) | SS (SS indicates solubility ≥ 1mg/ml) | SS (SS indicates solubility ≥ 1mg/ml) | 0.14 nM | 0.13 nM
CC[C@H](C)[C@@H](C(=O)N[C@@H](CC(C)C)C(=O)N[C@@H](CO)C(=O)N[C@@H](CO)C(=O)N[C@H](C(=O)N[C@@H](CCC(=O)O)C(=O)N[C@H](C(=O)NCC(=O)N[C@@H](CO)C(=O)N[C@@H](CCC(=O)O)C(=O)N[C@H](C(=O)N1CCC[C@H]1C(N)=O)[C@@H](C)O)C(C)C)[C@@H](C)O)N(C)C(=O)[C@H](C)NC(=O)CN(C)C(=O)[C@H](Cc1ccccc1)NC(=O)[C@H](CO)NC(=O)[C@H](CO)NC(=O)[C@H](CO)NC(=O)[C@H](CO)NC(=O)[C@H](CCCNC(=N)N)NC(=O)[C@H](Cc1c[nH]cn1)NC(=O)[C@H](CC(C)C)NC(=O)[C@H](Cc1ccccc1)NC(=O)[C@H](CCC(=O)O)NC(=O)[C@H](C)NC(=O)[C@H](CC(C)C)NC(=O)[C@H](CCCNC(=N)N)NC(=O)[C@H](CCC(=O)O)NC(=O)[C@@H](NC(=O)[C@H](C)NC(=O)[C@@H]1CSSC[C@H](NC(=O)[C@H](CCCCN)NC(=O)[C@H](CCCCN)NC(=O)CC[C@H](NC(=O)CCCCCCCCCCCCCCCCCCC(=O)O)C(=O)O)C(=O)N[C@@H](CCC(=O)O)C(=O)N[C@@H]([C@@H](C)O)C(=O)N[C@@H](C)C(=O)N[C@@H]([C@@H](C)O)C(=O)N1)[C@@H](C)O [Compound 163, [19CD]-isoGlu-KKC()ETATC()ATERLAEFLHRSSSSF-Gly(Me)-A-Ile(Me)-LSSTEVGSETP-NH2] ({C20 diacid-γGlu}-KKCETATCATERLAEFLHRSSSSF[Sar]A[NMeI]LSSTEVGSETP-NH2; disulfide 3-8) | SS (SS indicates solubility ≥ 1mg/ml) | SS (SS indicates solubility ≥ 1mg/ml) | SS (SS indicates solubility ≥ 1mg/ml) | SS (SS indicates solubility ≥ 1mg/ml) | SS (SS indicates solubility ≥ 1mg/ml) | II (II indicates solubility ≤ 1 mg/ml) | SS (SS indicates solubility ≥ 1mg/ml) | 0.74 nM | 0.42 nM
CC[C@H](C)[C@@H](C(=O)N[C@@H](CC(C)C)C(=O)N[C@@H](CO)C(=O)N[C@@H](CO)C(=O)N[C@H](C(=O)N[C@@H](CCC(=O)O)C(=O)N[C@H](C(=O)NCC(=O)N[C@@H](CO)C(=O)N[C@@H](CCC(=O)O)C(=O)N[C@H](C(=O)N1C[C@H](O)C[C@H]1C(N)=O)[C@@H](C)O)C(C)C)[C@@H](C)O)N(C)C(=O)CN(C)C(=O)[C@H](Cc1ccccc1)NC(=O)[C@H](CO)NC(=O)[C@H](CO)NC(=O)[C@H](CCCNC(=N)N)NC(=O)[C@H](Cc1c[nH]cn1)NC(=O)[C@H](CC(C)C)NC(=O)[C@H](Cc1ccccc1)NC(=O)[C@H](CCC(=O)O)NC(=O)[C@H](C)NC(=O)[C@H](CC(C)C)NC(=O)[C@H](CCCNC(=N)N)NC(=O)[C@H](CCC(=O)O)NC(=O)[C@@H](NC(=O)[C@H](C)NC(=O)[C@@H]1CSSC[C@H](NC(=O)[C@H](Cc2c[nH]c3ccccc23)NC(=O)CC[C@H](NC(=O)CCCCCCCCCCCCCCCCCCC(=O)O)C(=O)O)C(=O)NCC(=O)N[C@@H]([C@@H](C)O)C(=O)N[C@@H](C)C(=O)N[C@@H]([C@@H](C)O)C(=O)N1)[C@@H](C)O [Compound 165, [19CD]-isoGlu-WC()GTATC()ATERLAEFLHRSSF-Gly(Me)-Ile(Me)-LSSTEVGSET-Hyp-NH2] ({C20 diacid-γGlu}-WCGTATCATERLAEFLHRSSF[Sar][NMeI]LSSTEVGSET[Hyp]-NH2; disulfide 2-7) | SS (SS indicates solubility ≥ 1mg/ml) | SS (SS indicates solubility ≥ 1mg/ml) | SS (SS indicates solubility ≥ 1mg/ml) | SS (SS indicates solubility ≥ 1mg/ml) | SS (SS indicates solubility ≥ 1mg/ml) | II (II indicates solubility ≤ 1 mg/ml) | SS (SS indicates solubility ≥ 1mg/ml) | 0.27 nM | 0.11 nM

Reference: EP3046573B1, “AMYLIN ANALOGUES” (Zealand Pharma A/S, priority 2013, dated 2015)
